We go through 2 compounds from the NIST ThermoML archive (doi:10.1016/j.tca.2013.01.028).

The nature of the series: excess molar enthalpy (molar enthalpy of mixing); xn = mol fraction of the nth substance listed. The settings on record: 303.15 K, 101 kPa, Liquid, Calvet calorimetry.

Numbers after ± are expanded uncertainties.

Consider `c1ccccc1` [benzene] + CCCCCCC, for which the excess molar enthalpy reads like this: (x1 = 0.2481) 0.145 ± 0.00167 kcal/mol; (x1 = 0.5) 0.221 ± 0.00239 kcal/mol; (x1 = 0.7576) 0.186 ± 0.0021 kcal/mol.
In the case of `c1ccccc1` [benzene] + Cc1ccccc1, the excess molar enthalpy by setting is: (x2 = 0.247) 0.013 ± 0.000359 kcal/mol; (x2 = 0.4944) 0.017 ± 0.000406 kcal/mol; (x2 = 0.7685) 0.0114 ± 0.000359 kcal/mol.
